Reference: publication PMC8954382, “A Sub-Micromolar MraYAA Inhibitor with an Aminoribosyl Uridine Structure and a (S,S)-Tartaric Diamide: Synthesis, Biological Evaluation and Molecular Modeling” (Molecules, 2022)
Read-outs that look alike come from different tables or passages of the source.

Columns and labels:
[1] = test system: MraY; details: Table 2, known inhibitor, cited from earlier work
[2] = target: T1, MraY transferase purified from Aquifex aeolicus (MraYAA) (Aquifex aeolicus, UniProt O66465); assay: MraYAA transferase inhibition, fluorescence assay with dansylated UDP-MurNAc-pentapeptide; assay type: biochemical; details: for IC50: inhibition of MraYAA transferase activity, triplicate, repeated at least twice
T1 construct: His tag; made in house
Experimental: The inhibitory activity of the synthesized compounds 2, (S,S)-3a, (R,R)-3b, 4 and 5 was evaluated on MraY transferase purified from Aquifex aeolicus (MraYAA), which was prepared as previously described by Chung et al.. Their activity was compared to the inhibitory activity of the unprotected amino precursor 12, urea-containing inhibitor 13 and C- and N-triazole-containing inhibitors 14 and 15 (Figure 4) that we previously synthesized (Table 1). Commercially available tunicamycin from Streptomyces sp. was used as a positive control in the test.
The inhibitory activity of the synthesized compounds 1–5 was determined as described in Reference. The compounds were evaluated on His-tagged MraY transferase purified from Aquifex aeolicus (MraYAA) prepared as previously described by Chung et al.. The assays were performed as previously described by Stachyra et al. in 96-well plates in a total reaction mixture of 100 µL containing 100 mM of Tris-HCl (pH 7.5), 40 mM MgCl2, 150 µM C55-P, 150 mM NaCl, 25 µM dansylated UDP-MurNAc-pentapeptide and 0.4% of n-dodecyl β-D-maltoside. The reaction was initiated by the addition of pure MraYAA enzyme (10 µL, 0.036 mg/mL). Briefly, MraY catalyzed the formation of lipid I, displaying an apolar environment from polar and hydrosoluble dansylated-UDP-MurNAc-pentapeptide. This modification in the environment of the dansyl probe was accompanied by an enhancement (3.4 times) of fluorescence, as well as a shift of the maximum of fluorescence emission spectrum from 560 nm for the dansylated nucleotidic substrate to 530 nm for the dansylated lipid product (see Figure 2 in Stachyra et al.. This property was exploited to develop an HTS assay and to assess MraY activity by using an Enspire fluorescence microplate reader (Perkin-Elmer, Courtaboeuf, France). The fluorescence measurement was read every two minutes at 37 °C, under shaking during 60 min; the excitation wavelength and the emission wavelength were 340 nm and 530 nm, respectively. Experiments were performed in triplicate, and each experiment was repeated at least twice. In each case, the fluorescence of a control sample without enzyme was subtracted, initial velocity was calculated and percent inhibition was deduced. IC50 values were determined from plots of the percent inhibition versus the inhibitor concentration, and data were processed on Excel software.

[3] = test system: Staphylococcus aureus ATCC 25923; assay: Antibacterial activity, MIC by broth microdilution; assay type: cell-based; details: Gram +
Experimental: (§1) Even if our goal was to improve the MraY inhibitory activity of the reference urea 13, and that was successfully achieved, the antibacterial activity of MraY inhibitors 2–5 was also evaluated against several bacterial strains. Gram-negative (E. coli ATCC 8730, C. freundii ATCC8090 and P. aeruginosa ATCC 27853) and Gram-positive pathogenic bacterial strains (S. aureus ATCC 25923 and E. faecium ATCC 19434), including a methicillin resistant strain (S. aureus MRSA ATCC 43300), were selected as representative of pathogen bacterial diversity. Piperacillin and vancomycin were used as positive controls in the tests. […] Therefore, further optimization of the lipophilic side chain is still required to increase the antibacterial activity by modulating the lipophilicity of the molecule.
(§2) Tests were made according to the procedure described in Reference, following EUCAST (European Committee on Antimicrobial Susceptibility testing)/CLSI (Clinical and Laboratory Standard Institute) recommended procedure. This microtitration plate size allows direct detection of bacterial growth in a relatively small volume, without the use of a spectrophotometer or the addition of dyes. Molecules were solubilized in 100% DMSO (cell culture grade) at 20.48 mg/mL concentration and 40-fold diluted in MHB to reduce DMSO concentration in the antibacterial test, just before utilization. The MHB-diluted solutions were then serially two-fold diluted in MHB, at final concentration ranging from 128 to 1 µg/mL. Bacterial inoculums were prepared for each strain, resuspending isolated colonies from 18 h cultured plates. Equivalents of 0.5 Mac Farland turbidity standard (approximately 1.108 CFU/mL) were prepared in saline solution (NaCl […]) and diluted 200-fold in MBH. The bacterial suspensions were then added to microplates containing the diluted molecules. Microtitration plates were incubated overnight at 37 °C. MICs were determined as the lowest dilution of product showing no visual turbidity.

[4] = test system: Pseudomonas aeruginosa ATCC 27853; assay: Antibacterial activity, MIC by broth microdilution; assay type: cell-based; details: Gram -
Experimental: as §1, §2

[5] = test system: Escherichia coli ATCC 8730; assay: Antibacterial activity, MIC by broth microdilution; assay type: cell-based; details: Gram -
Experimental: as §1, §2

[6] = test system: Citrobacter freundii ATCC 8090; assay: Antibacterial activity, MIC by broth microdilution; assay type: cell-based; details: Gram -
Experimental: as §1, §2

[7] = test system: Enterococcus faecium ATCC 19434; assay: Antibacterial activity, MIC by broth microdilution; assay type: cell-based; details: Gram +
Experimental: as §1, §2

[8] = test system: Staphylococcus aureus MRSA ATCC 43300; assay: Antibacterial activity, MIC by broth microdilution; assay type: cell-based; details: Gram +
Experimental: as §1, §2

[9] = test system: six selected bacterial species; parameters: method as in PMID 34115086; details: previously reported; ref [32]; cited from earlier work

T1 sequence (O66465 whole entry): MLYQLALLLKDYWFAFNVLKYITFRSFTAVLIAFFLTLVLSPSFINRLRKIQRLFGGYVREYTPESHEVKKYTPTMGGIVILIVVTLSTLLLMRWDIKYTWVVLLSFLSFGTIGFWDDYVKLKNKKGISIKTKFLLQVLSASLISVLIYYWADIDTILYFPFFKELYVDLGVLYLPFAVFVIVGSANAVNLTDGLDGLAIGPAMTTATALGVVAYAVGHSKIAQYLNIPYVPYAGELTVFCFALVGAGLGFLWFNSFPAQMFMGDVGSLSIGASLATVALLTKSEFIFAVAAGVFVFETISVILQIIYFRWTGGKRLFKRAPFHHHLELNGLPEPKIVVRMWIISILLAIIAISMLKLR

Compound: CC(C)C[C@H](NC(=O)[C@@H](NC(=O)N[C@H](C(=O)O)C(C)C)[C@@H]1CCN=C(N)N1)C(=O)NCCCN[C@H](C(=O)O)[C@H](O[C@@H]1O[C@H](CN)[C@@H](O)[C@H]1O)[C@H]1O[C@@H](n2ccc(=O)[nH]c2=O)[C@H](O)[C@@H]1O [Muraymycin D2]
- IC50 ([1]; ref [41]): 46 nM

Compound: NC[C@H](O[C@@H]1O[C@H](CN)[C@@H](O)[C@H]1O)[C@H]1O[C@@H](n2ccc(=O)[nH]c2=O)[C@H](O)[C@@H]1O [Compound 12, reference compound]
- IC50 [2]: 50300 ± 3270 nM

Compound: CCCCCCCCCCNC(=O)NC[C@H](O[C@@H]1O[C@H](CN)[C@@H](O)[C@H]1O)[C@H]1O[C@@H](n2ccc(=O)[nH]c2=O)[C@H](O)[C@@H]1O [Compound 13, reference compound]
- CMI [3]: > 128 µg/mL
- CMI [4]: > 128 µg/mL
- CMI [5]: > 128 µg/mL
- CMI [6]: > 128 µg/mL
- CMI [7]: > 128 µg/mL
- CMI [8]: > 128 µg/mL
- antibacterial activity [9]: does not display antibacterial activity
- IC50 [2]: 1930 ± 130 nM

Compound: Tunicamycin [reference compound]
- IC50 [2]: 26 nM

Compound: CCCCCCCCCCNC(=O)C(O)C(O)C(=O)NCC(OC1OC(CN)C(O)C1O)C1OC(n2ccc(=O)[nH]c2=O)C(O)C1O [(R,R)-3b]
- CMI [3]: 128 µg/mL
- CMI [4]: > 128 µg/mL
- CMI [5]: > 128 µg/mL
- CMI [6]: > 128 µg/mL
- CMI [7]: > 128 µg/mL
- CMI [8]: > 128 µg/mL
- IC50 [2]: 1380 ± 50 nM

Compound: CCCCCCCCCCS(=O)(=O)NCC(OC1OC(CN)C(O)C1O)C1OC(n2ccc(=O)[nH]c2=O)C(O)C1O (stereo not drawn) [Compound 5]
- CMI [3]: > 128 µg/mL
- CMI [4]: > 128 µg/mL
- CMI [5]: > 128 µg/mL
- CMI [6]: > 128 µg/mL
- CMI [7]: > 128 µg/mL
- CMI [8]: > 128 µg/mL
- IC50 [2]: 2910 ± 130 nM

Compound: CCN1CCN(C(=O)N[C@@H](C(=O)N[C@@H]2C(=O)N3[C@@H]2SC(C)(C)[C@@H]3C(=O)O)c2ccccc2)C(=O)C1=O [Piperacillin, reference compound]
- CMI [3]: 4 µg/mL
- CMI [4]: 8 µg/mL
- CMI [5]: 4 µg/mL
- CMI [6]: 4 µg/mL
- CMI [7]: 4 µg/mL
- CMI [8]: > 128 µg/mL

Compound: CCCCCCCCCCNC(=O)C(O)C(O)C(=O)NCC(OC1OC(CN)C(O)C1O)C1OC(n2ccc(=O)[nH]c2=O)C(O)C1O [Compound (S,S)-3a]
- CMI [3]: 128 µg/mL
- CMI [4]: > 128 µg/mL
- CMI [5]: > 128 µg/mL
- CMI [6]: > 128 µg/mL
- CMI [7]: > 128 µg/mL
- CMI [8]: > 128 µg/mL
- IC50 [2]: 370 ± 10 nM
- gain in activity (factor) as compared to the reference compound 13 with an urea linker ([2]; ratio of MraYAA IC50 values): 5

Compound: CCCCCCCCCCNc1c(NCC(OC2OC(CN)C(O)C2O)C2OC(n3ccc(=O)[nH]c3=O)C(O)C2O)c(=O)c1=O (stereo not drawn) [Compound 2]
- CMI [3]: > 128 µg/mL
- CMI [4]: > 128 µg/mL
- CMI [5]: > 128 µg/mL
- CMI [6]: > 128 µg/mL
- CMI [7]: > 128 µg/mL
- CMI [8]: > 128 µg/mL
- IC50 [2]: 17970 ± 40 nM

Compound: CN[C@H](CC(C)C)C(=O)N[C@H]1C(=O)N[C@@H](CC(N)=O)C(=O)N[C@H]2C(=O)N[C@H]3C(=O)N[C@H](C(=O)N[C@H](C(=O)O)c4cc(O)cc(O)c4-c4cc3ccc4O)[C@H](O)c3ccc(c(Cl)c3)Oc3cc2cc(c3O[C@@H]2O[C@H](CO)[C@@H](O)[C@H](O)[C@H]2O[C@H]2C[C@](C)(N)[C@H](O)[C@H](C)O2)Oc2ccc(cc2Cl)[C@H]1O [Vancomycin, reference compound]
- CMI [3]: 1 µg/mL
- CMI [7]: 0.5 µg/mL
- CMI [8]: 1 µg/mL

Compound: CCCCCCCCCCCCCCCCC[C@H]1CN(C)[C@@H]([C@H](O[C@@H]2O[C@H](CN)[C@@H](O)[C@H]2O)[C@H]2O[C@@H](n3ccc(=O)[nH]c3=O)[C@H](O)[C@@H]2O)C(=O)N(C)[C@@H]1C(=O)O [Carbacaprazamycin]
- IC50 ([1]; ref [31]): 104 nM

Compound: CCCCCCCCCCC(=O)NCC(OC1OC(CN)C(O)C1O)C1OC(n2ccc(=O)[nH]c2=O)C(O)C1O (stereo not drawn) [Compound 4]
- CMI [3]: 128 µg/mL
- CMI [4]: > 128 µg/mL
- CMI [5]: > 128 µg/mL
- CMI [6]: > 128 µg/mL
- CMI [7]: 128 µg/mL
- CMI [8]: 128 µg/mL
- IC50 [2]: 6490 ± 210 nM
